Test [1] concerns the target purified human plasma kallikrein (Homo sapiens (Human), UniProt P03952). Nature of the test: Plasma kallikrein enzyme inhibition assay (chromogenic substrate S-2302). The test is classed as biochemical.
Test [2] addresses purified human Factor XIa (Homo sapiens (Human), UniProt P03951). Nature of the test: Factor XIa enzyme inhibition assay (chromogenic substrate S-2366).
[3] abbreviates: read-out: Factor XIa Ki, measured at 25° C.
Where [4] appears, read: measured at 25° C. (no asterisk).

Structures can show the parent of a compound that is named as a salt. Where two headings read alike, the source gives them in different places.

Chain of purified human Factor XIa (P03951 388-625): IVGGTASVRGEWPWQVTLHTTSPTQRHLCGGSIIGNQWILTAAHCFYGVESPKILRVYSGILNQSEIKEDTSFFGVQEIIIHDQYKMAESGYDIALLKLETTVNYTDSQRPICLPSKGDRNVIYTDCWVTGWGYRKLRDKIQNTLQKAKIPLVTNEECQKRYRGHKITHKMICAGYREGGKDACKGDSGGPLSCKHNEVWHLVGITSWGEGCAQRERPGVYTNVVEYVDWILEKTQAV
Chain of purified human Factor XIa (P03951 19-387 partner): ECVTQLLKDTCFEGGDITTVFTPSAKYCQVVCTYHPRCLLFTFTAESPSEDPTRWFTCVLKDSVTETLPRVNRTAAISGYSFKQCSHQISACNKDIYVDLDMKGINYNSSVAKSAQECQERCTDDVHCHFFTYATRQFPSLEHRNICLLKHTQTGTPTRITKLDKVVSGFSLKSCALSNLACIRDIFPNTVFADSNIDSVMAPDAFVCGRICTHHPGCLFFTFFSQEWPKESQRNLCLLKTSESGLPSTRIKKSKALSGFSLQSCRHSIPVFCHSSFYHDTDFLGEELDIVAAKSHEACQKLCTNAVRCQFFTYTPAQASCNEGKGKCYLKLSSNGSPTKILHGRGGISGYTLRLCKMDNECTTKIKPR
Chain of purified human plasma kallikrein (P03952 391-638): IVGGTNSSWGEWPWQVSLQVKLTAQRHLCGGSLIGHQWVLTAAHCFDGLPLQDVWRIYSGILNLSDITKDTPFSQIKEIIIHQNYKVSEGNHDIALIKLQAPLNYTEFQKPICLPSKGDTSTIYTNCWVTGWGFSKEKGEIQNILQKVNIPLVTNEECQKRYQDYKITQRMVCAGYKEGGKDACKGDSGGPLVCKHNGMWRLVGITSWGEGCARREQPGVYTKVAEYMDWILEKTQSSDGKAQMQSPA
Chain of purified human plasma kallikrein (P03952 20-390 partner): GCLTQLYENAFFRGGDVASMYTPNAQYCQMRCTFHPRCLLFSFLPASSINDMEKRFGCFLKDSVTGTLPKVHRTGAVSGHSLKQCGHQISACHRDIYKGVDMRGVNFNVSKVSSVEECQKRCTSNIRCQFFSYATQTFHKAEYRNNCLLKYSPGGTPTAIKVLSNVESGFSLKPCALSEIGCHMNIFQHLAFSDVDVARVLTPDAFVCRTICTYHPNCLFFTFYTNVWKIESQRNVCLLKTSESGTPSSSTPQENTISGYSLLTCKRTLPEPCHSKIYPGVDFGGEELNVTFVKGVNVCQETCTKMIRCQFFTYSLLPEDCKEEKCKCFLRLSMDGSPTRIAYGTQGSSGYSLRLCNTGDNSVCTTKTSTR

What is called Ki is a dissociation constant, usually derived from enzyme kinetics or from competition with a known ligand. As for `O=C(NC12CCC(C(=O)O)(CC1)CC2)[C@@H]1c2cccc(-c3cncnc3)c2CCN1C(=O)c1cn(-c2cccc(Cl)c2F)nn1` (single isomer, unassigned; enantiomer a) [Example 144, 4-(2-{[1-(3-Chloro-2-fluorophenyl)-1H-1,2,3-triazol-4-yl]carbonyl}-5-(pyrimidin-5-yl)-1,2,3,4-tetrahydroisoquinoline-1-amido)bicyclo[2.2.2]octane-1-carboxylic acid, 1 TFA (enantiomer A)], the Ki was 11600 nM in test [1] (measured at 37° C. (*)) and 3030 nM in test [2] (setting [3]).

On to `O=C(O)c1ccc(NC(=O)C2c3cccc(-c4cnoc4)c3CCN2C(=O)c2cn(-c3cccc(Cl)c3F)nn2)cc1` (centres unmarked) [Example 159, 4-(2-(1-(3-chloro-2-fluorophenyl)-1H-1,2,3-triazole-4-carbonyl)-5-(isoxazol-4-yl)-1,2,3,4-tetrahydroisoquinoline-1-carboxamido)benzoic acid], for which the figures for the Ki in test [1] (setting [4]) and in test [2] (setting [3]) were 21.9 nM and 13.2 nM, respectively.

Take `COC1CCN(c2cccc3c2CCN(C(=O)c2cc(C)n(-c4ccc(Cl)cc4)c2C)C3C(=O)Nc2ccc(C(=O)O)cc2)CC1` (centres unmarked) [Example 147, 4-(2-(1-(4-chlorophenyl)-2,5-dimethyl-1H-pyrrole-3-carbonyl)-5-(4-methoxypiperidin-1-yl)-1,2,3,4-tetrahydroisoquinoline-1-carboxamido)benzoic acid, TFA salt]: the Ki in test [1] (measured at 37° C. (*)) is above 6000 nM; in test [2] (setting [3]), 2690 nM.

Take `O=C(O)c1ccc(NC(=O)C2c3cccc(N4CCC(N5CCCC5)CC4)c3CCN2C(=O)C2CC(c3cccc(Cl)c3)=NO2)cc1` (single isomer, unassigned) [Example 204, 4-(2-(3-(3-chlorophenyl)-4,5-dihydroisoxazole-5-carbonyl)-5-(4-(pyrrolidin-1-yl)piperidin-1-yl)-1,2,3,4-tetrahydroisoquinoline-1-carboxamido)benzoic acid, 2 TFA salt]: the Ki in test [1] (setting [4]) is 11 nM; in test [2] (setting [3]), below 5 nM.

For `CN1CCN(c2cccc3c2CCN(C(=O)c2cn(-c4cccc(Cl)c4F)nn2)[C@@H]3C(=O)Nc2ccc(C(=O)O)cc2)C(=O)C1` [Example 80, (S)-4-(2-(1-(3-chloro-2-fluorophenyl)-1H-1,2,3-triazole-4-carbonyl)-5-(4-methyl-2-oxopiprazin-1-yl)-1,2,3,4-tetrahydroisoquinoline-1-carboxamido)benzoic acid, HCl], the Ki is 6.37 nM in test [1] (setting [4]) and below 5 nM in test [2] (setting [3]).

For `N#Cc1cccc2c1CCN(C(=O)c1cn(-c3cccc(Cl)c3F)nn1)C2C(=O)Nc1ccc(C(=O)O)cc1` (centres unmarked) [Example 108, 4-(2-(1-(3-Chloro-2-fluorophenyl)-1H-1,2,3-triazole-4-carbonyl)-5-cyano-1,2,3,4-tetrahydroisoquinoline-1-carboxamido)benzoic acid], the inhibition constant Ki in test [1] (setting [4]) worked out at 50 nM; in test [2] (setting [3]) it was 48.8 nM.

For `COC1CCN(c2cccc3c2CCN(C(=O)C2CC(c4c(F)ccc(Cl)c4F)=NO2)C3C(=O)Nc2ccc(C(=O)O)cc2)CC1` (centres unmarked) [Example 257, 4-(2-(3-(3-chloro-2,6-difluorophenyl)-4,5-dihydroisoxazole-5-carbonyl)-5-(4-methoxypiperidin-1-yl)-1,2,3,4-tetrahydroisoquinoline-1-carboxamido)benzoic acid, TFA salt], the Ki in test [1] (measured at 25° C. (no asterisk), TFA salt) is 24 nM; in test [2] (read-out: Factor XIa Ki, measured at 25° C., TFA salt) it was below 5 nM.

For the molecule `CC(=O)Nc1cccc2c1CCN(C(=O)c1cn(-c3cccc(Cl)c3F)nn1)C2C(=O)Nc1ccc(C(=O)O)cc1` (centres unmarked) [Example 191, 4-(5-Acetamido-2-(1-(3-chloro-2-fluorophenyl)-1H-1,2,3-triazole-4-carbonyl)-1,2,3,4-tetrahydroisoquinoline-1-carboxamido)benzoic acid], the Ki in test [1] (setting [4]) turned out to be 12.3 nM; in test [2] (setting [3]), 13.4 nM.

For the molecule `O=C(O)c1ccc(NC(=O)[C@H]2c3cccc(N4CCN(CC(F)(F)F)CC4)c3CCN2C(=O)[C@H]2CC(c3cccc(Cl)c3F)=NO2)cc1` [Example 231, 4-((R)-2-((R)-3-(3-Chloro-2-fluorophenyl)-4,5-dihydroisoxazole-5-carbonyl)-5-(4-(2,2,2-trifluoroethyl)piperazin-1-yl)-1,2,3,4-tetrahydroisoquinoline-1-carboxamido)benzoic acid, 2 TFA salt], the Ki worked out at 1290 nM in test [1] (measured at 37° C. (*)) and 136 nM in test [2] (setting [3]).

Take `CN(C)C1CCN(c2cccc3c2CCN(C(=O)c2cn(-c4cccc(Cl)c4F)nn2)C3C(=O)Nc2ccc(-c3nnn[nH]3)cc2)CC1` (centres unmarked) [Example 105, N-(4-(1H-Tetrazol-5-yl)phenyl)-2-(1-(3-chloro-2-fluorophenyl)-1H-1,2,3-triazole-4-carbonyl)-5-(4-(dimethylamino)piperidin-1-yl)-1,2,3,4-tetrahydroisoquinoline-1-carboxamide, bis-TFA salt]: the Ki in test [1] (setting [4]) was 1.69 nM; in test [2] (setting [3]), below 5 nM.

On to `O=C(O)c1ccc(NC(=O)C2c3cccc(-c4cn[nH]c4)c3CCN2C(=O)c2cn(-c3cccc(Cl)c3F)nn2)cc1` (centres unmarked) [Example 41, 4-(2-(1-(3-chloro-2-fluorophenyl)-1H-1,2,3-triazole-4-carbonyl)-5-(1H-pyrazol-4-yl)-1,2,3,4-tetrahydroisoquinoline-1-carboxamido)benzoic acid], for which the results for the Ki in test [1] (setting [4]) and in test [2] were 7.68 nM and below 5 nM, respectively.

`O=C(O)c1ccc(NC(=O)C2c3cccc(-c4cncc(F)c4)c3CCN2C(=O)c2cn(-c3cccc(Cl)c3F)nn2)cc1` (centres unmarked) [Example 35, 4-(2-(1-(3-chloro-2-fluorophenyl)-1H-1,2,3-triazole-4-carbonyl)-5-(5-fluoropyridin-3-yl)-1.2,3,4-tetrahydroisoquinoline-1-carboxamido)benzoic acid, TFA salt]: the Ki in test [1] (setting [4]) is 22.9 nM; in test [2] (setting [3]), below 5 nM.

As to `COC1CCN(c2cccc3c2CCN(C(=O)c2coc(-c4cccc(Cl)c4F)n2)C3C(=O)Nc2ccc(C(=O)O)cc2)CC1` (racemic) [Example 310, 4-(2-(2-(3-chloro-2-fluorophenyl)oxazole-4-carbonyl)-5-(4-methoxypiperidin-1-yl)-1,2,3,4-tetrahydroisoquinoline-1-carboxamido)benzoic acid, TFA salt], the values for the Ki in test [1] (setting [4]) and in test [2] were 610 nM and 82 nM, respectively.

As for `COC1CCN(c2cccc3c2CCN(C(=O)[C@H]2CC(c4cccc(Cl)c4F)=NO2)[C@H]3C(=O)Nc2cccc(F)c2)CC1` (single isomer, unassigned) [Example 238, TFA salt], the results for the Ki in test [1] (measured at 37° C. (*)) and in test [2] were above 4340 nM and 635 nM, respectively.

On to `COC1CCN(c2cccc3c2CCN(C(=O)N2CCCC(c4cccc(Cl)c4F)C2)C3C(=O)Nc2ccc(C(=O)O)cc2)CC1` (centres unmarked) [Example 326, 4-(2-(3-(3-Chloro-2-fluorophenyl)piperidine-1-carbonyl)-5-(4-methoxypiperidin-1-yl)-1,2,3,4-tetrahydroisoquinoline-1-carboxamido)benzoic acid, TFA salt], for which the Ki in test [1] (measured at 37° C. (*)) is above 2000 nM; in test [2], 330 nM.

For `CN(C)CCNC(=O)c1ccc(-c2cccc3c2CCN(C(=O)c2cnn(-c4cccc(Cl)c4F)c2)C3C(=O)Nc2ccc(C(=O)O)cc2)cc1` (centres unmarked) [Example 8, 4-(2-(1-(3-Chloro-2-fluorophenyl)-1H-pyrazole-4-carbonyl)-5-(4-((2-(dimethylamino)ethyl)carbamoyl)phenyl)-1,2,3,4-tetrahydroisoquinoline-1-carboxamido)benzoic acid, TFA salt], the Ki in test [1] (setting [4]) was 3.37 nM; in test [2] (setting [3]), below 5 nM.

`COC1CCN(c2cccc3c2CCN(C(=O)c2cnc(-c4cccc(Cl)c4F)s2)C3C(=O)Nc2ccc(C(=O)O)cc2)CC1` (racemic) [Example 270, 4-(2-(2-(3-chloro-2-fluorophenyl)thiazole-5-carbonyl)-5-(4-methoxypiperidin-1-yl)-1,2,3,4-tetrahydroisoquinoline-1-carboxamido)benzoic acid, TFA salt]: the values for the inhibition constant Ki in test [1] (setting [4]) and in test [2] were 269 nM and 20.4 nM, respectively.

`CN(C)C1CCN(c2cccc3c2CCN(C(=O)c2cn(-c4cccc(Cl)c4F)nn2)[C@@H]3C(=O)Nc2ccc(C(N)=O)cc2)CC1` [Example 101, (S)-N-(4-Carbamoylphenyl)-2-(1-(3-chloro-2-fluorophenyl)-1H-1,2,3-triazole-4-carbonyl)-5-(4-(dimethylamino)piperidin-1-yl)-1,2,3,4-tetrahydroisoquinoline-1-carboxamide, bis-TFA salt]: the inhibition constant Ki was 1.75 nM in test [1] (setting [4]) and below 5 nM in test [2] (setting [3]).

Regarding `N#Cc1ncc(-c2cccc3c2CCN(C(=O)c2cn(-c4cccc(Cl)c4F)nn2)C3C(=O)Nc2ccc(C(=O)O)cc2)cn1` (centres unmarked) [Example 32, 4-(2-(1-(3-chloro-2-fluorophenyl)-1H-1,2,3-triazole-4-carbonyl)-5-(2-cyanopyrimidin-5-yl)-1,2,3,4-tetrahydroisoquinoline-1-carboxamido)benzoic acid], the Ki is 17.5 nM in test [1] (setting [4]) and below 5 nM in test [2].

Turning to `COC(=O)c1ccc(NC(=O)[C@@H]2c3cccc(-c4cncnc4)c3CCN2C(=O)[C@H]2CC(c3cccc(Cl)c3F)=NO2)cc1` [Example 28, Methyl 4-((S)-2-((R)-3-(3-chloro-2-fluorophenyl)-4,5-dihydroisoxazole-5-carbonyl)-5-(pyrimidin-5-yl)-1,2,3,4-tetrahydroisoquinoline-1-carboxamido)benzoate], the Ki in test [1] (measured at 37° C. (*)) was 55.8 nM; in test [2] (setting [3]), below 5 nM.

As to `COc1cncc(-c2cccc3c2CCN(C(=O)c2cn(-c4cccc(Cl)c4F)nn2)C3C(=O)Nc2ccc(C(=O)O)cc2)c1` (centres unmarked) [Example 36, 4-(2-(1-(3-chloro-2-fluorophenyl)-1H-1,2,3-triazole-4-carbonyl)-5-(5-methoxypyridin-3-yl)-1,2,3,4-tetrahydroisoquinoline-1-carboxamido)benzoic acid, TFA salt], the Ki in test [1] (setting [4]) was 26.7 nM; in test [2] (setting [3]) it was below 5 nM.

For “4-(2-(5-amino-1-(3-chloro- 2-fluorophenyl)-1H- pyrazole-4-carbonyl)-5-(4- (pyrrolidin-1- yl)piperidin-1-yl)-1,2,3,4- tetrahydroisoquinoline-1- carboxamido)benzoic acid, 3TFA salt [Example 213]”, the Ki in test [1] (setting [4]) was 12.2 nM; in test [2] (read-out: Factor XIa Ki) it was below 5 nM.

(Values after patent publication US9738655B2, “Tetrahydroisoquinolines containing substituted azoles as factor XIa inhibitors” (BRISTOL-MYERS SQUIBB COMPANY, priority 2013, dated 2017).)
